In one series the test system is C57BL/6 female mice. Put plainly: Recovery of ERG response (dark adaptation) after bleach, long-term treatment. The note with it: 500 cd·m^−2 for 3 min, 60 min dark adaptation. The format is in vivo, mouse. As for the experimental part: (§1) Recovery of the ERG response (dark adaptation) following bleach was measured by monitoring the amplitude of a-waves after retinal exposure to intense constant illumination (500 cd·m^−2, ˜90% bleached rhodopsin) for 3 min. […] Retinoid kinetics in the eyes of each group were quantitatively evaluated during 60 min of dark adaptation after 3 min of bleaching at four subsequent time points of dark adaptation (0, 10, 30, and 60 min). […] Neither 9-cis-retinal nor 9-cis-retinyl esters were found in eyes from untreated groups (data not shown).
Six groups of mice were studied (FIG. 1B).
(§2) Two weeks after the last gavage with either, 9-cis-R-Ac, all-trans-R-Ac or vehicle, groups of 48 hr dark-adapted mice were analyzed for recovery of dark adaptation after light exposure, purified rhodopsin/opsin and retinoids in the eye and retinal morphology (FIG. 1C; Methods). Mice were exposed to light of intensity 500 cd·m^−2 that bleached ˜90% of rhodopsin, anesthetized and monitored by ERG for one hr to evaluate recovery of dark adaptation. Rhodopsin was purified and rhodopsin/opsin ratios was determined. Retinoid analyses were performed on dissected eyes removed at 0, 10, 30, and 60 min after exposure to the same amount of light. Mice used to evaluate retinal morphology were not exposed to photobleaching prior to analysis.
ERGs of anesthetized mice were recorded as previously reported.

The test system of a further series is retina. The experiment in a line: Retinal morphology (light and electron microscopy). The class given is in vivo, mouse. As for the experimental part: The thickness of each major layer in the retina was also similar between control and treated groups.
For light microscopy, mouse eyecups were fixed with 2.5% glutaraldehyde and 1.6% paraformaldehyde in 0.08 M 1,4-piperazinediethanesulfonate buffer (PIPES) (pH 7.4) containing 2% sucrose for ˜1 hr at room temperature followed by 23 hr at 4° C. Eyecups then were washed with 0.13 M sodium phosphate buffer (pH 7.3) and dehydrated through a CH3OH series and embedded in JB4 glycol metacrylate. Sections (6 μm) were stained by immersion in 5% Richardson's stain for 1.5-2 min at room temperature and destained in 0.13 M sodium phosphate (pH 7.3) until the retinal layers were visible by light microscopy (about 8-15 min). For transmission electron microscopy, mouse eyecups were analyzed as described previously (Maeda, A., et al. J Blot Chem 280, 18822-18832 (2005); Maeda, T., Lem, J., Palczewski, K. & Haeseleer, F. Investigative ophthalmology & visual science 46, 4320-4327 (2005)).

Series [1] concerns Lrat−/− and Rpe65−/− knockout mice. The note with it: gastric gavage, Lrat−/− mice; cited from earlier work.
Series [2] can be described thus: A2E accumulation in eyes after long-term treatment. The class given is in vivo, mouse. As for the experimental part:
To evaluate the safety of long-term administration of 9-cis-R-Ac, A2E accumulation was measured (FIG. 6A), because retinals spontaneously condense to this compound (Mata, N. L., Weng, J. & Travis, G. H. Proceedings of the National Academy of Sciences of the United States of America 97, 7154-7159 (2000); Parish, C. A., Hashimoto, M., Nakanishi, K., Dillon, J. & Sparrow, J. Proceedings of the National Academy of Sciences of the United States of America 95, 14609-14613 (1998)).
All experimental procedures related to extraction, derivatization and separation of retinoids were carried out under dim red light provided by a Kodak No. 1 safelight filter (transmittance>560 nm) as described previously (Van Hooser, J. P., et al. Proceedings of the National Academy of Sciences of the United States of America 97, 8623-8628 (2000); Van Hooser, J. P., et al. J Biol Chem, 277, 19173-19182 (2002); Maeda, A., et al. J Biol Chem 280, 18822-18832 (2005); Van Hooser, J. P., Garwin, G. G. & Saari, J. C. Methods Enzymol 316, 565-575 (2000)). […] The combined extracts were dried under argon and retinoids were separated by normal phase HPLC (Beckman, Ultrasphere-Si, 5 μm, 4.6×250 mm) with 10% ethyl acetate and 90% hexane at a flow rate of 1.4 ml/min and detected at 325 nm by an HPI 100 HPLC with a diode array detector and HP Chemstation A.03.03 software. […]

Series [3] can be described thus: Retinoid levels in eyes by HPLC, single dose. The class given is in vivo, mouse. As for the experimental part: Forty eight hr dark-adapted, 10-month-old mice were gavaged with a single dose (˜80 mg/kg body weight) of 9-cis-R-Ac or control vehicle and exposed to strong illumination for 20 min (500 cd·m^−2 that bleached ˜90% rhodopsin). Next, mice were dark-adapted for 16 hr after which various analyses were performed (FIG. 1A). […] To investigate whether 9-cis-retinal was utilized to form isorhodopsin and to assess how much unliganded opsin was present in the mouse eyes, rhodopsin, isorhodopsin and opsin were purified by immunoaffinity chromatography from treated and control groups of mice. […] After bleaching, 9-cis-retinal is bound to opsin even in the presence of a functional retinoid cycle that produces 11-cis-retinal to regenerate rhodopsin. Eyes from non-bleached or bleached and dark-adapted untreated mice contained a small amount of free opsin.
9-cis-R-Ac was prepared as previously described (Batten, M. L., et al. PLoS medicine 2, e333 (2005); Batten, M. L., et al. J Biol Chem 279, 10422-10432 (2004)). A dose of ˜80 mg/kg body weight of 9-cis-R-Ac in 150 μl vegetable oil was administered via gavage to each treated animal. Prior to single dose experiments (FIG. 1A, Table 1), 10-month-old mice were dark-adapted for more than 48 hr, gavaged with 9-cis-R-Ac or vehicle control solution 1 hr before bleaching, exposed to light for 20 min at 500 cd·m^−2 and dark-adapted for 16 hr before analysis.
All experimental procedures related to extraction, derivatization and separation of retinoids were carried out under dim red light provided by a Kodak No. 1 safelight filter (transmittance>560 nm) as described previously (Van Hooser, J. P., et al. Proceedings of the National Academy of Sciences of the United States of America 97, 8623-8628 (2000); Van Hooser, J. P., et al. J Biol Chem, 277, 19173-19182 (2002); Maeda, A., et al. J Biol Chem 280, 18822-18832 (2005); Van Hooser, J. P., Garwin, G. G. & Saari, J. C. Methods Enzymol 316, 565-575 (2000)). Eluted fractions of purified rhodopsin from 6 mouse eyes were combined (total 3.0 ml) and mixed with an equal volume of 100% methanol. The mixture was vortexed and incubated on ice for 15 min. Retinoids were extracted twice with an equal volume of 100% hexane (6 ml total). The combined extracts were dried under argon and retinoids were separated by normal phase HPLC (Beckman, Ultrasphere-Si, 5 μm, 4.6×250 mm) with 10% ethyl acetate and 90% hexane at a flow rate of 1.4 ml/min and detected at 325 nm by an HPI 100 HPLC with a diode array detector and HP Chemstation A.03.03 software. A2E was analyzed as previously described (Maeda, A., et al. J Biol Chem, 280, 18822-18832 (2005)).

Series [4] is described as follows: Husbandry: activity, coat and skin appearance, body weight, tolerability.
Description: Animals were evaluated weekly for activity and changes in coat and skin appearance.
For the long-term study (FIGS. 1B and 1C, Table 1), mice were obtained at 3 months of age and raised until 4 months of age before the experiments were initiated. Mice then were gavaged with 9-cis-R-Ac or vehicle solution once a month for different durations. Six groups of mice were studied (FIG. 1B). The first 3 groups (C0 C1 and C2, total n=35 for each group) were treated as controls and tested at 4, 10 and 14 months of age. The other 3 groups (N1, N2 and N3, n=35) were gavaged with 9-cis-R-Ac. Group N1 was gavaged for 6 months and tested at 10 months of age. Group N2 was gavaged with 9-cis-R-Ac for 10 months and tested at 14 months of age. Group N3, was gavaged with vehicle until 10 months of age and then received 9-cis-R-Ac monthly until testing at 14 months of age.
Series [5] can be described thus: Retinoid kinetics in the eyes during dark adaptation, long-term treatment. The format is in vivo, mouse. The note with it: 10 months of age, N1 vs C1, 60 min after the bleach (p<0.01). As for the experimental part:
as §1
as §2, with “analysis. […]” for “analysis.”

Entries after “also recorded” stand apart in the source; their conditions may differ.

Consider `CC(=O)OC/C=C(C)/C=C/C=C(C)\C=C\C1=C(C)CCCC1(C)C` [9-cis-R-Ac, 9-cis-retinyl acetate], for which the “recovery of ERG a-wave response (dark adaptation) after bleach” value in the series on C57BL/6 female mice (10 months of age, N1 vs C1) is “significantly faster; also recorded: significantly higher; also recorded: restored the rate of recovery to that seen in 4-month-old mice”; in the series with C57BL/6 female mice (14 months of age, treated (9-cis-R-Ac: N2 and N3) vs C2) it was “significantly faster; also recorded: significantly higher recovery rate”. Also, the “retinal abnormalities by light microscopy” value in the series on retina (10 and 14 months of age) is “no major abnormalities”. Besides, in the series on retina (control vs treated), the “EM analysis of the outer retina and RPE layer” value is “no gross differences”. Besides, in the series with retina (control vs treated), the “thickness of each major layer in the retina” value was “similar”. Also, the “lengths of rod outer segments (ROS)” value in the series with retina (control vs treated at 10 and 14 months of age) was “similar”. Further, the “beneficial effects compared with 9-cis-retinal” value in series [1] is “same beneficial effects as 9-cis-retinal”. The “amounts of A2E in eyes” value in series [2] (all experimental groups (C1, C2, N1, N2, N3), FIG. 6B) is “did not differ significantly among all groups with the exception of N3, where they were slightly lower”. In addition, in series [2] (long-term treatment, treated vs control at 10 and 14 months of age), the “A2E and iso-A2E levels in eyes” value is recorded as “did not accumulate”. Further, the 9-cis-retinal in eyes result is given as “Significant amounts of 9-cis-retinal were detected; also recorded: detected only in the eyes of 9-cis-R-Ac treated mice” in series [3] (exposed to intense light, treated mice) and “Only trace amounts” in series [3] (unbleached treated mouse eyes). The “9-cis-retinyl esters in eyes (RPE)” value in series [3] (treated and exposed to intense light) is given as “significant amount of 9-cis-retinyl esters; also recorded: easily detectable; also recorded: detected only in the eyes of 9-cis-R-Ac treated mice”. Moreover, the “amounts of 11-cis-retinal and all-trans-retinyl esters in eyes” value in series [3] (treated vs control) is on record as “not significantly affected; also recorded: similar”. Besides, the “activity and changes in coat and skin appearance” value in series [4] (evaluated weekly during the experimental period) is listed as “No changes”. Also, the body weights result in series [4] (pre-treatment, 10 months and 14 months, control (C1-2) vs treated (N1-3)) was “no significant differences”. Moreover, the “regeneration level of 11-cis-retinal in eyes” value in series [5] is “significantly higher”.

The values above are taken from patent publication US9855239B2, “Methods for the treatment and prevention of age-related retinal dysfunction” (University of Washington, priority 2008, dated 2018).
